US10457943B2, “Antisense oligonucleotides for treatment of cancer stem cells” (Andes Biotechnologies Global, Inc., priority 2013, dated 2019)
Entries after “also recorded” stand apart in the source; their conditions may differ.

Columns and labels:
[1] = test system: SiHa cervical cancer cell line (HPV 16); test: Sphere formation assay, SiHa cervical cancer cell line; format: cell-based, human; conditions: incubated with 45 μM cisplatin
Description: (§1) The ability of cervical cells from the SiHa cervical cancer cell line (transformed with Human Papillomavirus 16 or HPV 16) and from primary cultures of human uterine cervical cancer cells derived from patients to form spheroid bodies following treatment with antisense oligonucleotides directed to antisense non-coding chimeric mitochondrial RNA (ASncmtRNA) was determined. The assay utilized measured the numbers of spheroid bodies, also referred to herein as spheres, which are formed by cancer stem cells.
(§2) The experimental procedure and assay utilized herein measured the effect of antisense oligonucleotides that were targeted to ASncmtRNA on the number of spheres formed by cervical cancer cells (FIG. 6). Sphere formation was measured in the SiHa cervical cancer cell line and primary cultures of human cervical cancer cells derived from patients (CerCa). CerCa 1, CerCa 2 and CerCa 3 (transformed with Human Papillomavirus 45) were obtained from patient biopsies. […]
(§3) About 1×10^5 cells resuspended in MEGM™ medium supplemented with 20 ng/ml of hEGF, hydrocortisone, insulin, GA-1000 (Lonza), 0.5×B-27 without vitamin A (Invitrogen), 20 ng/ml of FGFb (Invitrogen) without CFS were seeded on ultra-low adherence plates (Corning). Ten days later, the spheres were counted under phase microscopy, collected and filtered using a nylon mesh of 70 μm to discard single cells. […]

[2] = test system: CerCa 1 primary cervical tumor cells (HPV 16); test: Sphere formation assay, primary cervical tumor cells CerCa 1; format: cell-based, human; conditions: incubated with 45 μM cisplatin
Description: as §1
as §2, with “(CerCa).” for “(CerCa). CerCa 1, CerCa 2 and CerCa 3 (transformed with Human Papillomavirus 45) were obtained from patient biopsies.”
as §3
(§4) The different primary cultures were analyzed with the PGMY09/11 Linear Array (Roche). […]

[3] = test system: CerCa 2 primary cervical tumor cells (HPV 16); test: Sphere formation assay, primary cervical tumor cells CerCa 2; format: cell-based, human; conditions: incubated with 45 μM cisplatin
Description: as §1
as §2, with “(CerCa).” for “(CerCa). CerCa 1, CerCa 2 and CerCa 3 (transformed with Human Papillomavirus 45) were obtained from patient biopsies.”
as §3, §4

[4] = test system: CerCa 3 primary cervical tumor cells (HPV 45); test: Sphere formation assay, primary cervical tumor cells CerCa 3; format: cell-based, human; conditions: incubated with 45 μM cisplatin
Description: as §1
as §2, with “(CerCa).” for “(CerCa). CerCa 1, CerCa 2 and CerCa 3 (transformed with Human Papillomavirus 45) were obtained from patient biopsies.”
as §3, §4

[5] = test system: B16F10 melanoma cells; test: Relapse and metastasis after surgical removal of B16F10 melanoma tumors (Example 3); format: in vivo, C57BL/6 mice
Description: One common clinical protocol for melanoma includes surgical resection follow by systemic administration of drugs. Similar protocols are used in the practice of other tumors. In the melanoma model presented in this representative example, B16F10 melanoma cells (100,000 cells in 200 μl of saline) were injected subcutaneously on the back of C57BL/6 mice. About 11 to 12 days post-cell injection, tumors between 700 to 1.000 mm3 developed (a 1,000 mm3 tumor in mice is considered equivalent to a 3,000 cc3 tumor in humans). […] Tumors were surgically resected under anesthesia and the wound washed once with 250 μl containing 100 μg of ASO 1560S or ASO 154. After surgical suture, a bolus of 200 μl saline containing 100 μg of ASO 154 or ASO 1560S was applied into the cavity left by the tumor. Three days post-surgery, mice received on alternative days, 3 intravenous (FIG. 9; 1st, 3rd, 5th arrows on timeline) or 3 intraperitoneal (FIG. 9; 2nd, 4th, 6th arrows on timeline) injections of 250 μl saline containing 100 μg of either ASO 1560S or ASO 154. Tumor growth was measured twice a week with a caliper.
Relapse of tumor growth in mice treated with ASO 154 was observed about 3 days post-surgery and tumor volume of about 1,500 mm3 was reached on about the 25th day post-cell injection (FIG. 9). These mice were euthanized under anesthesia, and the tumor and other organs were fixed and saved for further studies. […] Livers and lungs were analyzed for the presence of metastatic nodules.

[6] = test system: RENCA cells; test: Relapse and survival after surgical removal of RENCA kidney tumors, single post-surgery treatment (Example 4); format: in vivo, mice; conditions: in liposomes
Description: 100,000 RENCA cells (ATCC® CRL-2947™ Mus musculus kidney renal adenocarcina) were injected subcutaneously at day 0. […] The animals were sutured and […] injected at the site of the removed tumor with 100 μg of ASO 154 (FIG. 11, squares) or ASO 1560S (FIG. 11, triangles), both formulated in liposomes, in 250 μl. No further treatment was given.

[7] = test system: RENCA cells; test: Relapse and survival after surgical removal of RENCA kidney tumors, intraperitoneal/intravenous treatment (Example 5); format: in vivo, mice; conditions: day 60; 25 μg ip and iv injections in liposomes
Description: 100,000 RENCA cells (ATCC® CRL-2947™ Mus musculus kidney renal adenocarcina) were injected subcutaneously on day 0 in 8 mice. […] Tumors of all animals were removed by surgery and divided in 2 groups. […] Post-suture, a bolus of 250 μl was intraperiotoneally injected in the place of where tumor had grown: the control group was injected with ASO 154 and the treated group with ASO 1560S. On days 13, 15, 17 and 19, intraperitoneal injections of 25 μg ASO 154 (FIG. 12, circles) or 25 μg ASO 1560S (FIG. 12, squares) formulated in liposomes were injected in a volume of 250 μl. On days 14, 16 and 18, the mice were injected intravenously with the same protocol. On day 22, all control animals had tumors larger than 1,200 mm3 and were sacrificed. On day 60, all animals treated with ASO 1560S had no tumors and were still alive (FIG. 12).

[8] = test system: B16F10 melanoma cells; test: Relapse and survival after surgical removal of B16F10 melanoma tumors, intraperitoneal treatment (Example 6); format: in vivo, mice; conditions: 25 and 50 μg intraperitoneal injections post-surgery
[9] = test system: MB49 cells (mouse bladder cancer cells); test: Tumors and survival after surgical removal of MB49 bladder carcinoma tumors (Example 7); format: in vivo, mice
Description: Twelve mice were injected subcutaneously with a 100,000 MB49 cells (mouse bladder cancer cells). After 15 days mice had tumors of an average diameter of 800 mm3. Tumors were surgically removed (day 0) and a bolus of 200 μl containing 100 μg of ASO 154 (control) or ASO 1560S (active drug) was injected at the site of the surgery. Three days post-surgery mice were divided in 2 groups and treated intraperitoneally or intravenously with 100 μl injections containing ASO 154 (control group) or ASO 1560S (treated group) as indicated in FIG. 14. Only one mouse treated intraperitoneally with ASO 1560S developed a tumor.

[10] = FIG. 14, intraperitoneal or intravenous administration
[11] = treated intravenously after 100 μg bolus at surgery site

Compound | Sphere formation [1] | Sphere formation [2] | Sphere formation [3] | Sphere formation [4] | Relapse of tumor growth after surgery ([5]; 100 μg wound wash, 100 μg bolus, then 3 iv and 3 ip injections of 100 μg) | Detectable tumors ([5]; 130 days post-cell injection) | Metastatic nodules in lungs and liver ([5]; organs collected at euthanasia) | Survival ([6]; day 61) | Tumors / tumor relapse after surgery ([6]; up to day 61, 100 μg wash and 100 μg injection) | Survival [7] | Tumors / relapse after surgery [7] | Survival [8] | Tumor relapse after surgery [8] | Survival [9, 10] | Tumors [9, 10] | Number of mice that developed a tumor ([9]; treated intraperitoneally after 100 μg bolus at surgery site) | Survival [9, 11] | Tumors [9, 11]
N.N.[Cl][Pt][Cl] [cisplatin] | abolished sphere formation | abolished sphere formation | abolished sphere formation | no effect; also recorded: resistant to cisplatin treatment |  |  |  |  |  |  |  |  |  |  |  |  |  | 
ASO 1560S: antisense oligonucleotide targeted to the mouse ASncmtRNAs (SEQ ID NO: 198) (antisense CACCCTCTAACCTAGAGAAG; all phosphorothioate, sugars by position and methylation of C not given here) |  |  |  |  | No relapse; also recorded: prevented or suppressed cancer relapse; also recorded: absence of tumor relapse | without the presence of detectable tumors | lacked the presence of metastatic nodules; also recorded: absence of metastatic nodules | still alive; also recorded: complete survival | no tumors; also recorded: absence of tumor relapse | still alive | no tumors; also recorded: absence of relapse | complete survival | absence of the intradermal melanoma tumor relapse | complete survival | absence of tumors | one | full survival | remained without tumors
